Three compounds from ChEMBL document CHEMBL3525954, “Evaluation of hepatic disposition of paroxetine using sandwich-cultured rat and human hepatocytes” (Drug Metab Dispos, 2013) can be followed below.

A short description of series [1]: Drug metabolism in human hepatocytes assessed as parent compound level at 1 uM after 3 hrs by radio-chromatogram analysis. The format is ADME, cell-based, Hepatocyte. The settings on record: read-out: Drug metabolism.
Series [2] is described as follows: Drug metabolism in 4 days of sandwich-cultured human hepatocytes assessed as parent compound level at 1 uM after 24 hrs by radio-chromatogram analysis. The following applies: read-out: Drug metabolism. The format is ADME, cell-based, Hepatocyte.
Series [3] in a line: Drug metabolism in Sprague-Dawley rat hepatocytes assessed as parent compound level at 1 uM by radio-chromatogram analysis. The format is ADME, cell-based, Hepatocyte. The following applies: TDE = time-dependent effect.
The nature of series [4]: Drug metabolism in Sprague-Dawley rat hepatocytes assessed as (2S,3R,4S,5S,6R)-2-(4-(((4R)-4-(4-fluorophenyl)piperidin-3-yl)methoxy)-2-methoxyphenoxy)-6-(hydroxymethyl)tetrahydro-2H-pyran-3,4,5-triol level at 1 uM by radio-chromatogram analysis. The series is classed as ADME, cell-based, Hepatocyte. The settings on record: TDE = time-dependent effect.
The nature of series [5]: Drug metabolism in Sprague-Dawley rat hepatocytes assessed as 4-(((4R)-4-(4-fluorophenyl)piperidin-3-yl)methoxy)-2-methoxyphenyl hydrogen sulfate level at 1 uM by radio-chromatogram analysis. The series is classed as ADME, cell-based, Hepatocyte. The following applies: TDE = time-dependent effect.
The nature of series [6]: Drug metabolism in 4 days of sandwich-cultured Sprague-Dawley rat hepatocytes assessed as parent compound level at 1 uM by radio-chromatogram analysis. The series is classed as ADME, cell-based, Hepatocyte. The settings on record: 96 h, TDE = time-dependent effect.
A short description of series [7]: Drug metabolism in 4 days of sandwich-cultured Sprague-Dawley rat hepatocytes assessed as (2S,3R,4S,5S,6R)-2-(4-(((4R)-4-(4-fluorophenyl)piperidin-3-yl)methoxy)-2-methoxyphenoxy)-6-(hydroxymethyl)tetrahydro-2H-pyran-3,4,5-triol level at 1 uM by radio-chromatogram analysis. The format is ADME, cell-based, Hepatocyte. The settings on record: 96 h, TDE = time-dependent effect.

Series [8] in a line: Drug metabolism in 4 days of sandwich-cultured Sprague-Dawley rat hepatocytes assessed as 4-(((4R)-4-(4-fluorophenyl)piperidin-3-yl)methoxy)-2-methoxyphenyl hydrogen sulfate level at 1 uM by radio-chromatogram analysis. The format is ADME, cell-based, Hepatocyte. The following applies: 96 h, TDE = time-dependent effect.
The nature of series [9]: Drug metabolism in Sprague-Dawley rat hepatocytes assessed as parent compound level at 1 uM after 3 hrs by radio-chromatogram analysis. The series is classed as ADME, cell-based, Hepatocyte. The following applies: read-out: Drug metabolism.
Series [10] in a line: Drug metabolism in 4 days of sandwich-cultured Sprague-Dawley rat hepatocytes assessed as parent compound level at 1 uM after 24 hrs by radio-chromatogram analysis. The series is classed as ADME, cell-based, Hepatocyte. The settings on record: read-out: Drug metabolism.
Series [11] in a line: Drug metabolism in human hepatocytes treated with at 1 uM of paroxetine after 3 hrs by radio-chromatogram analysis. The format is ADME, cell-based, Hepatocyte.
Series [12] can be described thus: Drug metabolism in 4 days of sandwich-cultured human hepatocytes treated with at 1 uM of paroxetine after 24 hrs by radio-chromatogram analysis. The format is ADME, cell-based, Hepatocyte. The settings on record: 96 h.
Series [13] in a line: Drug metabolism in 4 days of sandwich-cultured human hepatocytes assessed as biliary excretion index treated with at 1 uM of paroxetine after 0.025 to 24 hrs by radio-chromatogram analysis. The series is classed as ADME, tissue-based, Bile, Hepatocyte. The settings on record: 96 h.
A short description of series [14]: Drug metabolism in 4 days of sandwich-cultured Sprague-Dawley rat hepatocytes assessed as biliary excretion index treated with at 1 uM of paroxetine after 0.025 to 24 hrs by radio-chromatogram analysis. The format is ADME, tissue-based, Bile, Hepatocyte. The settings on record: 96 h.
Series [15] in a line: Drug uptake in rat liver […] assessed as BCRP-mediated drug transport at 0.5 uM up to 2 mins by liquid scintillation counting in presence of ATP. The format is ADME, subcellular.
Series [16] is described as follows: Drug metabolism in Sprague-Dawley rat hepatocytes treated with at 1 uM of paroxetine by radio-chromatogram analysis. The series is classed as ADME, cell-based, Hepatocyte. The settings on record: TDE = time-dependent effect.
A short description of series [17]: Drug metabolism in 4 days of sandwich-cultured Sprague-Dawley rat hepatocytes treated with at 1 uM of paroxetine by radio-chromatogram analysis. The format is ADME, cell-based, Hepatocyte. The following applies: 96 h, TDE = time-dependent effect.

As to `Fc1ccc([C@@H]2CCNC[C@H]2COc2ccc3c(c2)OCO3)cc1.O=C(O)/C=C\C(=O)O`, the remaining at 3 h, 1 µM stood at 71.4% in series [1] and 29.7% in series [9]. Further, the remaining at 96 h, 1 µM in series [2] was 52.8%; in series [10] it was 36.6%. The Drug metabolism result in series [3], in [4], in series [5], in series [6], in [7] and in [8] was “tde” in each case.
With `COc1cc(OC[C@@H]2CNCC[C@H]2c2ccc(F)cc2)ccc1OS(=O)(=O)O`, the Drug metabolism entry is reported as “metabolite_detected” in series [11]; “metabolite_detected” in series [12]; “metabolite_detected” in series [13]; “metabolite_detected” in [14]; “tde” in series [16]; “tde” in series [17]. Also, in series [15], the Drug uptake result is given as “Not Active”.
On to `COc1cc(OC[C@@H]2CNCC[C@H]2c2ccc(F)cc2)ccc1O[C@@H]1O[C@H](C(=O)O)[C@@H](O)[C@H](O)[C@H]1O`, for which the Drug metabolism result in series [11] is on record as “metabolite_detected”; in [12], “metabolite_detected”; in [13], “metabolite_detected”; in series [14], “metabolite_detected”; in [16], “tde”; in series [17] it was “tde”. For the same compound, the Drug uptake entry in [15] is given as “Active”.
